From patent publication US20170304388A1, “NEW INDICATION OF CARDIOVASCULAR DRUGS FOR PREPARATION OF CANCER INHIBITION PHARMACEUTICAL COMPOSITION” (LAUNX BIOMEDICAL CO., LTD., priority 2014, published 2017)
Where a name gives a salt, the structure may show the parent alone.

Legend:
Assay type in all cases: cell-based
SAS = assay: Cell viability analysis (WST-1), SAS; conditions: 72 h, Table 4, repeated experiments, drug 10 μM, read-out: survival rate (viability) of cancer cells, SAS
Protocol: (§1) Subculture the different types of cancer cells. The cancer cells includes lung cancer, gastric cancer, hepatic cancer, colon cancer, skin cancer, cervical cancer, prostate cancer, bladder cancer, breast cancer, leukemia, pancreatic cancer, ovarian cancer, tongue cancer, osteosarcoma, and renal cancer. The cell numbers were counted and reseed as 2×10^6 in cell culture plate/flask. Then, the culture medium for culturing the cell lines was added to a volume of 10 ml, and the cells were cultured for 2-3 days. Then, the cells were suspended for loading into 96-well plates. The cell number was 3000 cells and the volume of the culture medium was 100 ul each well.
(§2) Removing the original culture medium from 96-well plate. Then add 100 μl of commercially drug at a concentration of 10 μM per well. After 72 hours, add the diluted WST-1 reagent to the well with 100 μl/well, and the diluted WST-1 reagent was acquired from the dilution of 9:1 medium and WST-1 stock reagent. Finally, the total volume of each well are 200 μl/well. Culture the 96-well plate at 37° C. for 30 to 90 minutes. Detecting and calculating the survival rate of each cancer cells with an ELISA reader at OD450 nm. The lower viability of cancer cells represents better inhibition effect via the drugs. Otherwise, the higher viability of cancer cells represents worse inhibition effect via the drugs.
(§3) According to the above mentioned cardiovascular drugs for cancer growth inhibition in Table 3, the inventors took the repeat experiments for the cardiovascular drugs to check the growth inhibitory effects of cancer cells by the cardiovascular drugs. […] 4.

BxPC-3 = assay: Cell viability analysis (WST-1), BxPC-3; conditions: Homo sapiens, BXPC-3, 72 h, Table 4, repeated experiments, drug 10 μM, read-out: survival rate (viability) of cancer cells, BxPC-3
Protocol: as §1, §2, §3

BCC = assay: Cell viability analysis (WST-1), BCC; conditions: BCC, 72 h, Table 4, repeated experiments, drug 10 μM, read-out: survival rate (viability) of cancer cells, BCC
[1] = test system: AGS (Gastric Adenocarcinoma); assay: Cell viability analysis (WST-1), AGS; conditions: 72 h, Table 4, repeated experiments, drug 10 μM, WST-1, read-out: survival rate (viability) of cancer cells, AGS
AsPC-1 = assay: Cell viability analysis (WST-1), AsPC-1; conditions: Homo sapiens, ASPC1, 72 h, Table 4, repeated experiments, drug 10 μM, read-out: survival rate (viability) of cancer cells, AsPC-1
Protocol: as §1, §2, §3

[2] = test system: MKN-45 (Gastric Adenocarcinoma); assay: Cell viability analysis (WST-1), MKN-45; conditions: Homo sapiens, MKN-45, 72 h, Table 4, repeated experiments, drug 10 μM, WST-1, read-out: survival rate (viability) of cancer cells, MKN-45
[3] = test system: HCT116 (Colorectal Carcinoma); assay: Cell viability analysis (WST-1), HCT116; conditions: Homo sapiens, HCT-116, 72 h, Table 4, repeated experiments, drug 10 μM, WST-1, read-out: survival rate (viability) of cancer cells, HCT116
[4] = test system: TSGH-8301 (Urinary Bladder Carcinoma); assay: Cell viability analysis (WST-1), TSGH-8301; conditions: 72 h, Table 4, repeated experiments, drug 10 μM, WST-1, read-out: survival rate (viability) of cancer cells, TSGH-8301
[5] = test system: MCF7 (Mammary Gland, Adenocarcinoma); assay: Cell viability analysis (WST-1), MCF7; conditions: Homo sapiens, MCF7, 72 h, Table 4, repeated experiments, drug 10 μM, WST-1, read-out: survival rate (viability) of cancer cells, MCF-7
[6] = test system: PC3 (Prostate Adenocarcinoma); assay: Cell viability analysis (WST-1), PC3; conditions: 72 h, Table 4, repeated experiments, drug 10 μM, WST-1, read-out: survival rate (viability) of cancer cells, PC-3
NIH-OVCAR-3 = assay: Cell viability analysis (WST-1), NIH-OVCAR-3; conditions: Homo sapiens, OVCAR-3, 72 h, Table 4, repeated experiments, drug 10 μM, read-out: survival rate (viability) of cancer cells, NIH-OVCAR-3
Protocol: as §1, §2, §3

[7] = test system: A375 (Amelanotic Melanoma); assay: Cell viability analysis (WST-1), A375; conditions: Homo sapiens, A-375, 72 h, Table 4, repeated experiments, drug 10 μM, WST-1, read-out: survival rate (viability) of cancer cells, A375
Hep3B = assay: Cell viability analysis (WST-1), Hep3B; conditions: Homo sapiens, Hep3B, 72 h, Table 4, repeated experiments, drug 10 μM, read-out: survival rate (viability) of cancer cells, Hep3B
Protocol: as §1, §2, §3

[8] = test system: HeLa (Cervix Adenocarcinoma); assay: Cell viability analysis (WST-1), HeLa; conditions: Homo sapiens, HeLa, 72 h, Table 4, repeated experiments, drug 10 μM, WST-1, read-out: survival rate (viability) of cancer cells, HeLa
T24 = assay: Cell viability analysis (WST-1), T24; conditions: Homo sapiens, T-24, 72 h, Table 4, repeated experiments, drug 10 μM, read-out: survival rate (viability) of cancer cells, T24
Protocol: as §1, §2, §3

[9] = test system: H1650 (Lung Adenocarcinoma); assay: Cell viability analysis (WST-1), H1650; conditions: Homo sapiens, NCI-H1650, 72 h, Table 4, repeated experiments, drug 10 μM, WST-1, read-out: survival rate (viability) of cancer cells, H1650
[10] = test system: HepG2 (Hepatocellular Carcinoma); assay: Cell viability analysis (WST-1), HepG2; conditions: Homo sapiens, HepG2, 72 h, Table 4, repeated experiments, drug 10 μM, WST-1, read-out: survival rate (viability) of cancer cells, HepG2
786-O = assay: Cell viability analysis (WST-1), 786-O; conditions: Homo sapiens, 786-0, 72 h, Table 4, repeated experiments, drug 10 μM, read-out: survival rate (viability) of cancer cells, 786-O
Protocol: as §1, §2, §3

TOV-21G = assay: Cell viability analysis (WST-1), TOV-21G; conditions: Homo sapiens, TOV21G, 72 h, Table 4, repeated experiments, drug 10 μM, read-out: survival rate (viability) of cancer cells, TOV-21G
Protocol: as §1, §2, §3

C-33A = assay: Cell viability analysis (WST-1), C-33A; conditions: Homo sapiens, C-33-A, 72 h, Table 4, repeated experiments, drug 10 μM, read-out: survival rate (viability) of cancer cells, C-33A
Protocol: as §1, §2, §3

[11] = test system: LoVo (Colorectal Adenocarcinoma); assay: Cell viability analysis (WST-1), LoVo; conditions: Homo sapiens, LoVo, 72 h, Table 4, repeated experiments, drug 10 μM, WST-1, read-out: survival rate (viability) of cancer cells, LoVo
[12] = test system: A549 (Lung Adenocarcinoma); assay: Cell viability analysis (WST-1), A549; conditions: Homo sapiens, A549, 72 h, Table 4, repeated experiments, drug 10 μM, WST-1, read-out: survival rate (viability) of cancer cells, A549
MDA-MB231 = assay: Cell viability analysis (WST-1), MDA-MB231; conditions: Homo sapiens, MDA-MB-231, 72 h, Table 4, repeated experiments, drug 10 μM, read-out: survival rate (viability) of cancer cells, MDA-MB231
U2OS = assay: Cell viability analysis (WST-1), U2OS; conditions: Homo sapiens, U2OS, 72 h, Table 4, repeated experiments, drug 10 μM, read-out: survival rate (viability) of cancer cells, U2OS
Protocol: as §1, §2, §3

cancer cell lines = assay: Growth inhibitory effects on the panel of cancer cell lines; conditions: drug 10 μM, 72 hours, WST-1
Text: For cell viability analysis, the cardiovascular drugs include peripheral vasodilator reaming enhancer, angiotensin converting agent inhibitor, hypotension and shock therapeutic agent, diuretic, antiarrhythmic agent, antiarralciton drug, antihypertensive agent, anticoagulant thrombolytic agent, cardiac tonic, intravenous (hemorrhoids) therapeutic agent, are used to test the inhibition effect of cancer cell.

Row | SMILES | viability at 10 µM (SAS) | viability at 10 µM (BxPC-3) | viability at 10 µM (BCC) | viability at 10 µM [1] | viability at 10 µM (AsPC-1) | viability at 10 µM [2] | viability at 10 µM [3] | viability at 10 µM [4] | viability at 10 µM [5] | viability at 10 µM [6] | viability at 10 µM (NIH-OVCAR-3) | viability at 10 µM [7] | viability at 10 µM (Hep3B) | viability at 10 µM [8] | viability at 10 µM (T24) | viability at 10 µM [10] | viability at 10 µM (786-O) | viability at 10 µM (TOV-21G) | viability at 10 µM (C-33A) | viability at 10 µM [11] | also measured
1 | CC1=C(C(=O)OC(C)C)C(c2cccc([N+](=O)[O-])c2)C(C(=O)OC2CN(C(c3ccccc3)c3ccccc3)C2)=C(N)N1 (stereo not drawn) [Azelnidipine] | 76.8% | 64.6% | 100% | 90.2% | 53.6% | 139% | 111% | 115% | 60.8% | 121% | – | – | – | – | – | – | – | – | – | – | –
2 | COC(=O)C1=C(C)NC(C)=C(C(=O)OC2CCCN(Cc3ccccc3)C2)C1c1cccc([N+](=O)[O-])c1 (stereo not drawn) [Benidipine hydrochloride] | 64.5% | 73.8% | – | 87.8% | 63.4% | 92.9% | 90.6% | 81.5% | 77.3% | 88.5% | 85.2% | 76% | 98.8% | 92.9% | 61% | 83.6% | 78.9% | 47.5% | 105% | 69% | viability at 10 µM [9]: 64.5%; viability at 10 µM [12]: 70.3%; viability at 10 µM (MDA-MB231): 77.3%; viability at 10 µM (U2OS): 54.2%; inhibition effect on different cancer cell lines (in words) (cancer cell lines): significant inhibition effect
3 | CCCCc1nc(Cl)c(CO)n1Cc1ccc(-c2ccccc2-c2nn[nH]n2)cc1 [Losartan potassium] | 95.7% | 77.7% | 90.2% | 74.1% | 86.4% | 82.8% | 106% | 92% | 87.6% | 120% | 98.7% | 96.6% | 103% | 83.4% | 66.3% | 93.9% | 96.3% | 78.6% | 108% | 106% | viability at 10 µM [9]: 77.2%; viability at 10 µM [12]: 96%; viability at 10 µM (U2OS): 105%; inhibition effect on different cancer cell lines (in words) (cancer cell lines): significant inhibition effect
4 | COc1cc2nc(N3CCN(C(=O)c4ccco4)CC3)nc(N)c2cc1OC [Prazosin HCl] | 114% | 54% | 73.5% | 86.8% | 80.4% | 70.1% | 96.4% | 99.8% | 87.6% | – | 88.9% | 77.9% | 116% | 90.9% | 88.5% | 87.2% | 79.5% | 91.9% | 97.2% | 95.7% | viability at 10 µM [12]: 72.2%; viability at 10 µM (MDA-MB231): 85.1%; viability at 10 µM (U2OS): 98%; inhibition effect on different cancer cell lines (in words) (cancer cell lines): significant inhibition effect
